Measured values reported in publication PMC7250802, “Initial Evaluation of AF78: a Rationally Designed Fluorine-18-Labelled PET Radiotracer Targeting Norepinephrine Transporter” (Molecular Imaging and Biology, 2019).

Target: T1, norepinephrine transporter (NET) (Homo sapiens, UniProt P23975)
T1 construct: gene SLC6A2
Assay: competitive inhibition of […]AF78 uptake in SK-N-SH cells ([…] against […]MIBG)
Assay type: cell-based

T1 sequence (P23975 whole entry): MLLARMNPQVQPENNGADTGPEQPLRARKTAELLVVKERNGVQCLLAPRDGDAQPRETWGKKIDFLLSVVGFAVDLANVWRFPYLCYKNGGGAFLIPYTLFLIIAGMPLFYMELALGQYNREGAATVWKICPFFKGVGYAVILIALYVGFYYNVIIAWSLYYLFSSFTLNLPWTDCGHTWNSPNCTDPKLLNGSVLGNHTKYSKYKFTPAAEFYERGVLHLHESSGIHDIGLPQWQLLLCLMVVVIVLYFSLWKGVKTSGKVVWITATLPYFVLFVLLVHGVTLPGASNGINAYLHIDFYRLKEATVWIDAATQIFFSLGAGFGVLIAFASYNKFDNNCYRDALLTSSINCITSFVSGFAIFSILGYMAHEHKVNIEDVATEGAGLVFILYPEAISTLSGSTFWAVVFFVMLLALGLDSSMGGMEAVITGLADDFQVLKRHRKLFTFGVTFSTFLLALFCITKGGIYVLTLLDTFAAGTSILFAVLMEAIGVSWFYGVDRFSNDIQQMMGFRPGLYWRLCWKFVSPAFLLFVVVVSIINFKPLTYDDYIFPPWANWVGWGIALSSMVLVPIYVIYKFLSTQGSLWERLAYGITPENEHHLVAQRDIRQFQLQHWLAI

N=C(N)NCCc1ccc(F)c(O)c1 [4F-MHPG, 4-[^18F]fluoro-3-hydroxyphenethylguanidine]
IC50: 850 ± 630 nM
